Values of other authors in PubChem BioAssay AID1259410 (Chemical Carcinogenesis Research Information System (CCRIS), 2018).

System: rodent tumor promotion studies, tumor incidence
Test: CCRIS tumor promotion studies

SMILES: Clc1cccc(-c2ccc(Cl)c(Cl)c2Cl)c1Cl
- outcome (Carcinogen: 4-(METHYLNITROSAMINO)-1-(3-PYRIDYL)-1-BUTANONE, 64091-91-4, Doses [Carcinogen]: 50 MG/KG ON D 4 OF LIFE, Doses [Promoter]: 500 MG/KG ONCE ON D 56 OF LIFE (STUDY DURATION: 52 WK), Route [Carcinogen]: INTRAPERITONEAL, Route [Promoter]: INTRAGASTRIC, Species: MOUSE, Strain/Sex: SWISS/FEMALE): lung: tumor
- outcome (Carcinogen: 4-(METHYLNITROSAMINO)-1-(3-PYRIDYL)-1-BUTANONE, 64091-91-4, Doses [Carcinogen]: 100 MG/KG (0.5 MMOL) IN 0.9% STERILE SALINE ON DAYS 15, 17, AND 19 OF GESTATION, Doses [Promoter]: 0, 500 MG/KG IN OLIVE OIL ON POSTNATAL DAY 56 (STUDY DURATION: 72 WK), Route [Carcinogen]: TRANSPLACENTAL, Route [Promoter]: GAVAGE, Species: MOUSE, Strain/Sex: SWISS/MALE): liver: hepatocellular adenoma or carcinoma
- outcome (Carcinogen: 4-(METHYLNITROSAMINO)-1-(3-PYRIDYL)-1-BUTANONE, 64091-91-4, Doses [Carcinogen]: 100 MG/KG IN 0.9% SALINE ON GESTATION DAYS 15, 17 AND 19, Doses [Promoter]: 500 MG/KG ONCE ON D 56 OF LIFE TO OFFSPRING OF CARCINOGEN-TREATED MOTHERS (STUDY DURATION: 52 WK), Route [Carcinogen]: INTRAPERITONEAL, Route [Promoter]: INTRAGASTRIC, Species: MOUSE, Strain/Sex: SWISS/MALE): lung: tumor
- outcome (Carcinogen: DIETHYLNITROSAMINE, 55-18-5, Doses [Carcinogen]: 90 MG/KG BW ONCE, Doses [Promoter]: 0, 100 PPM IN DIET FOR 20 WK BEGINNING 3 WK POST CARCINOGEN DOSE (STUDY DURATION: 47 WK), Route [Carcinogen]: INTRAPERITONEAL, Route [Promoter]: ORAL, Species: MOUSE, Strain/Sex: C57BL/MALE): liver: tumor
- outcome (Carcinogen: DIETHYLNITROSAMINE, 55-18-5, Doses [Carcinogen]: 1100 PPM IN DIET FOR 1 YR, Doses [Promoter]: 0, 100 PPM IN DIET FOR 1 YR (STUDY DURATION: 1 YR), Route [Carcinogen]: ORAL, Route [Promoter]: ORAL, Species: FISH, Strain/Sex: RAINBOW TROUT/MALE, FEMALE): liver: hepatocellular carcinoma
- outcome (Carcinogen: DIISOPROPANOLNITROSAMINE [53609-64-6], Doses [Carcinogen]: SINGLE DOSE OF 2.5 G/KG BW, Doses [Promoter]: 100 PPM IN DIET BEGINNING 1 WK AFTER DIPN TREATMENT FOR 19 WKS (STUDY DURATION: 20 WKS), Route [Carcinogen]: SUBCUTANEOUS INJECTION, Route [Promoter]: DIET, Species: RAT, Strain/Sex: SPRAGUE-DAWLEY/MALE): thyroid: carcinoma
- outcome (Carcinogen: N-NITROSODIETHYLAMINE, 55-18-5, Doses [Carcinogen]: 90 MG/KG BW ONCE, Doses [Promoter]: 0, 175, 350 PPM IN DIET FOR 53 WK BEGINNING 2 WK POST CARCINOGEN DOSE (STUDY DURATION: 55 WK), Doses [Promoter]: 0, 175, 350 PPM IN DIET FOR 53 WK BEGINNING 2 WK POST CARCINOGEN DOSE (STUDY DURATION: 55 WK), Route [Carcinogen]: INTRAPERITONEAL, Route [Promoter]: ORAL, Species: MOUSE, Strain/Sex: D2B6F1/MALE): liver: hepatocellular adenoma, hepatocellular carcinoma
- outcome (Carcinogen: N-NITROSODIMETHYLAMINE, 62-75-9, Doses [Carcinogen]: 5 MG/KG IN SALINE ONCE AT 4 DAYS OF AGE, Doses [Promoter]: 0, 250 MG/KG IN OLIVE OIL ONCE AT 8 DAYS OF AGE (STUDY DURATION: 28 WK), Route [Carcinogen]: INTRAPERITONEAL, Route [Promoter]: GAVAGE, Species: MOUSE, Strain/Sex: SWISS/MALE): lung: tumor
- outcome (Carcinogen: N-NITROSODIMETHYLAMINE, 62-75-9, Doses [Carcinogen]: 5 MG/KG IN SALINE ONCE AT 4 DAYS OF AGE, Doses [Promoter]: 0, 250 MG/KG IN OLIVE OIL ONCE AT 8 DAYS OF AGE (STUDY DURATION: 52 WK), Route [Carcinogen]: INTRAPERITONEAL, Route [Promoter]: GAVAGE, Species: MOUSE, Strain/Sex: SWISS/MALE): lung: tumor; liver: tumor
- outcome (Carcinogen: N-NITROSODIMETHYLAMINE, 62-75-9, Doses [Carcinogen]: 5 MG/KG ON D 4 OF LIFE, Doses [Promoter]: 500 MG/KG ONCE ON D 56 OF LIFE (STUDY DURATION: 52 WK), Route [Carcinogen]: INTRAPERITONEAL, Route [Promoter]: INTRAGASTRIC, Species: MOUSE, Strain/Sex: SWISS/MALE): lung: tumor; liver: tumor
- outcome (Carcinogen: N-NITROSODIMETHYLAMINE, 62-75-9, Doses [Carcinogen]: 10 MG/KG IN SALINE ON GESTATION D 19, Doses [Promoter]: 500 MG/KG ONCE ON D 56 OF LIFE TO OFFSPRING OF CARCINOGEN-TREATED MOTHERS (STUDY DURATION: 52 WK), Route [Carcinogen]: INTRAPERITONEAL, Route [Promoter]: INTRAGASTRIC, Species: MOUSE, Strain/Sex: SWISS/MALE): lung: tumor

SMILES: N[C@@H](CC(=O)O)C(=O)O
- outcome (Carcinogen: N-BUTYL-N-(4-HYDROXYBUTYL)NITROSAMINE, 3817-11-6, Doses [Carcinogen]: 0.05% IN DRINKING WATER FOR 4 WK, Doses [Promoter]: 0, 5% IN DRINKING WATER FOR 36 WK BEGINNING POST CARCINOGEN TREATMENT (STUDY DURATION: 40 WK), Route [Carcinogen]: ORAL, Route [Promoter]: ORAL, Species: RAT, Strain/Sex: F344/FEMALE): urinary bladder: carcinoma
- outcome (Carcinogen: N-BUTYL-N-(4-HYDROXYBUTYL)NITROSAMINE, 3817-11-6, Doses [Carcinogen]: 0.05% IN DRINKING WATER FOR 4 WK, Doses [Promoter]: 0, 5% IN DRINKING WATER FOR 36 WK BEGINNING POST CARCINOGEN TREATMENT (STUDY DURATION: 40 WK), Route [Carcinogen]: ORAL, Route [Promoter]: ORAL, Species: RAT, Strain/Sex: F344/MALE): urinary bladder: carcinoma

SMILES: ClC1C(Cl)C(Cl)C(Cl)C(Cl)C1Cl (stereo not given)
- outcome (Carcinogen: DIETHYLNITROSAMINE, 55-18-5, Doses [Carcinogen]: 5 UG/G BW IN 0.1 ML SALINE ONCE AT 15 D OF AGE, Doses [Promoter]: 0, 250 PPM IN DIET FOR 24 WK BEGINNING AT 28 D OF AGE (STUDY DURATION: 26 WK), Route [Carcinogen]: INTRAPERITONEAL, Route [Promoter]: ORAL, Species: MOUSE, Strain/Sex: B6C3F1/FEMALE): liver: adenoma

SMILES: Clc1cc(Cl)c(-c2ccc(Cl)c(Cl)c2Cl)cc1Cl
- outcome (Carcinogen: N-NITROSODIMETHYLAMINE, 62-75-9, Doses [Carcinogen]: 5 MG/KG IN SALINE ON POSTNATAL DAY 4, Doses [Promoter]: 0, 20 MG/KG IN OLIVE OIL ON POSTNATAL DAY 8 (STUDY DURATION: 16 WK), Route [Carcinogen]: INTRAPERITONEAL, Route [Promoter]: GAVAGE, Species: MOUSE, Strain/Sex: SWISS/MALE, FEMALE): lung: tumor

SMILES: C=Cc1c(C)c2[n-]c1=CC1=NC(=CC3=C(C)C(=C([O-])[O-])C(=N3)C(CC(=O)[O-])=C3N=C(C=2)C(C)C3CCC(=O)[O-])C(CC)=C1C.[Cu+2].[Na+].[Na+].[Na+] (stereo not given)
- outcome (Carcinogen: 1,2-DIMETHYLHYDRAZINE, 540-73-8, Doses [Carcinogen]: 20 MG/KG/BW 1/WK FOR 5 WK, Doses [Promoter]: 0, 1.5 MILLIMOLAR IN DRINKING WATER BEGINNING POST CARCINOGEN TREATMENT AND CONTINUING FOR DURATION OF STUDY (STUDY DURA, Route [Carcinogen]: INTRAPERITONEAL, Route [Promoter]: ORAL, Species: RAT, Strain/Sex: F344/MALE): colorectal: tumor
- outcome (Carcinogen: 1,2-DIMETHYLHYDRAZINE, 540-73-8, Doses [Carcinogen]: 20 MG/KG/BW 1/WK FOR 5 WK, Doses [Promoter]: 0, 1.5 MILLIMOLAR IN DRINKING WATER THROUGHOUT THE STUDY (STUDY DURATION: 25 WK), Route [Carcinogen]: INTRAPERITONEAL, Route [Promoter]: ORAL, Species: RAT, Strain/Sex: F344/MALE): colorectal: tumor

SMILES: O=P(O)(O)OC1C(OP(=O)(O)O)C(OP(=O)(O)O)C(OP(=O)(O)O)C(OP(=O)(O)O)C1OP(=O)(O)O (stereo not given)
- outcome (Carcinogen: N-BUTYL-N-(4-HYDROXYBUTYL)NITROSAMINE, 3817-11-6, Doses [Carcinogen]: 0.05% IN DRINKING WATER FOR 4 WK, Doses [Promoter]: 0, 2% IN DIET BEGINNING POST CARCINOGEN TREATMENT AND CONTINUING FOR 32 WK (STUDY DURATION: 36 WK), Route [Carcinogen]: ORAL, Route [Promoter]: ORAL, Species: RAT, Strain/Sex: F344/MALE): urinary bladder: papilloma, carcinoma

SMILES: CN(CCCC(=O)O)N=O
- outcome (Carcinogen: 1-NITROSO-1,3-DIMETHYLUREA, 13256-32-1, Doses [Carcinogen]: 10 MG/ML IN ETHYL ACETATE/CORN OIL (1:1) 1/WK FOR 2 WK, Doses [Promoter]: 0, 100 MG/L IN DRINKING WATER 5 D/WK FOR 40 WK BEGINNING 1/WK POST CARCINOGEN TREATMENT (STUDY DURATION: 43 WK), Route [Carcinogen]: GAVAGE, Route [Promoter]: ORAL, Species: RAT, Strain/Sex: F344/MALE): urinary bladder: transitional cell carcinoma
- outcome (Carcinogen: NITROSOBIS(2-OXOPROPYL)AMINE, 60599-38-4, Doses [Carcinogen]: 12 MG/ML IN ETHYLACETATE/CORN OIL (1:1) 2/WK FOR 2 WK, Doses [Promoter]: 0, 100 MG/L IN DRINKING WATER 5 D/WK FOR 40 WK BEGINNING 1 WK POST CARCINOGEN TREATMENT (STUDY DURATION: 43 WK), Route [Carcinogen]: GAVAGE, Route [Promoter]: ORAL, Species: RAT, Strain/Sex: F344/MALE): colon: adenocarcinoma; urinary bladder: transitional cell carcinoma
